Measured values taken from patent US4006243A, “Amino-, mercapto- and -oxy-substituted-phenyl and -phenalkyl imidazoles” (Schering Aktiengesellschaft, priority 1974, dated 1977).

Legend:
Format in all cases: cell-based
Candida albicans = assay: MIC by the tube test against Candida albicans (Table I)
Excerpt: (§1) Table I illustrates the high activity of the compounds of this invention, using as examples the compounds numbered 5-25, which are compared to the known compounds 1-4, viz., the ethyl ester of 1-(1,2,3,4-tetrahydro-1-naphthyl)-imidazole-5-carboxylic acid (Etonam) and the commercially available 2-dimethylamino-6-(β-diethylaminoethoxy)-benzothiazole, dihydrochloride (Dimazol dihydrochloride), as well as N-(2-hydroxybenzyl)-imidazole and N-(4-hydroxybenzyl)-imidazole (Bull. Soc. Chim. France 1973, 1179). The MIC values were determined by the tube test.

Trichophyton rubrum = assay: MIC by the tube test against Trichophyton rubrum (Table I)
Excerpt: as §1

[1] = system: Trichophyton mentagrophytes; assay: MIC by the tube test against Trichophyton mentagrophytes (Table I)
Excerpt: as §1

CCOC(=O)c1cncn1C1CCCc2ccccc21 (stereo not drawn) [Compound 1, 1-(1,2,3,4-Tetrahydro-1-naphthyl)-imidazole-5-carboxylic Acid Ethyl Ester]
Minimum Inhibitory Concentration MIC against Candida albicans (Candida albicans): inactive

CCN(CC)CCOc1ccc2nc(N(C)C)sc2c1.Cl.Cl [Compound 2, 2-Dimethylamino-6-(β-diethylaminoethoxy)-benzothiazole, dihydrochloride]
Minimum Inhibitory Concentration MIC against Trichophyton rubrum (Trichophyton rubrum): inactive
Minimum Inhibitory Concentration MIC against Candida albicans (Candida albicans): inactive
Minimum Inhibitory Concentration MIC against Trichophyton mentagrophytes [1]: inactive

Oc1ccccc1Cn1ccnc1 [Compound 3, N-(2-Hydroxybenzyl)-imidazole]
Minimum Inhibitory Concentration MIC against Candida albicans (Candida albicans): inactive
Minimum Inhibitory Concentration MIC against Trichophyton mentagrophytes [1]: inactive

Oc1ccc(Cn2ccnc2)cc1 [Compound 4, N-(4-Hydroxybenzyl)-imidazole]
Minimum Inhibitory Concentration MIC against Trichophyton rubrum (Trichophyton rubrum): inactive
Minimum Inhibitory Concentration MIC against Candida albicans (Candida albicans): inactive
Minimum Inhibitory Concentration MIC against Trichophyton mentagrophytes [1]: inactive
